Results taken from patent publication US20080300180A1, “Growth Hormone Secretagogue Receptor 1A Ligands” (Gastrotech Pharma A/S, priority 2004, published 2008).
“Also recorded” adds a separate entry of the source. Square brackets hold non-standard residues; d marks the D form. Ends that are not written are not given here. * marks the point of attachment. Octanoyl = CCCCCCCC(=O)*; GABA = NCCCC(=O)O

Assay: Preclinical study evaluating the long-term efficacy of subcutaneous ghrelin, GTP-5 and GTP-6 in rats (weight gain, food intake, fat pads)
Assay type: in vivo, rat
Conditions: for Total weight increase in the animals, Mean ± S.D.: Sprague-Dawley rats, n=8, s.c. twice daily; for Body weight gain compared with saline group (in words) / Cumulative food intake compared with control group (in words) / Subcutaneous fat depots (fat pad weight, in words) / Epididymal fat depots (fat pad weight, in words): rats, s.c. twice daily
Protocol: 48 (Sprauge-Dawley (SD) IGS BR) rats were used in the study. The animals were caged individually and fed a commercial diet, R34, from Lactamin AB, Sweden. They were given free access to water. All animals were allowed an acclimatisation period of a minimum of 7 days prior to the commencement of the experiment. The animals were separated in six groups (n=8) and treated twice daily with subcutaneous injections as follows: • Group 1. Control (NaCl). • Group 2. Positive control Ghrelin 200 μg/kg body weight/injection. • Group 3. GTP-5 50 μg/kg body weight/injection. • Group 4. GTP-5 200 μg/kg body weight/injection. • Group 5. GTP-6 50 μg/kg body weight/injection. • Group 6. GTP-6 200 μg/kg body weight/injection.
The weight of the animals, and their food and water were recorded daily. The animals were checked twice daily for change in food intake, activity and fur quality as signs of a change in general health status.
Pre-dose, day 7 and 14 the animals were anaesthetized with Isofluran and blood was collected through the orbital plexus. The blood was analysed for clinical chemistry (ASAT, ALAT, bilirubin, albumin, creatinine, LD, GGT, potassium, sodium, glucose, IgF-1, insulin and leptin) and haematology (white blood cells, red blood cells, haemoglobin, platelets and haematokrit). After blood sampling the animals were killed and epididymal, subcutaneous and retroperitoneal fat pads were dissected and weighed.

[1] = 200 μg/kg body weight/injection
[2] = 50 μg/kg body weight/injection (low dose)
[3] = 200 μg/kg body weight/injection (high dose)
[4] = 200 μg/kg body weight/injection (high dose), listed as ghrelin

Substance: bASS(CO-C7 H15)FLSPEHQRVQQRKESKKPPAKLQPR (XSSFLSPEHQRVQQRKESKKPPAKLQPR; N-terminal beta-alanine; octanoyl on Ser3) [GTP-6, 28 amino acids long, octanoyl group on serine-3 sidechain (bA = beta-alanine)]
- Total weight increase in the animals, Mean ± S.D. (50 μg/kg body weight/injection): 79.3 ± 10.0 g
- Total weight increase in the animals, Mean ± S.D. [1]: 77.8 ± 10.2 g
- Body weight gain compared with saline group (in words) [2]: higher weight gains than saline; also recorded: associated with increases
- Cumulative food intake compared with control group (in words) [2]: tended to eat more than the control group; also recorded: associated with increases
- Subcutaneous fat depots (fat pad weight, in words) [2]: significant increase; also recorded: induced an increase
- Body weight gain compared with saline group (in words) [3]: higher weight gains than saline; also recorded: associated with increases
- Cumulative food intake compared with control group (in words) [3]: tended to eat more than the control group; also recorded: associated with increases
- Subcutaneous fat depots (fat pad weight, in words) [3]: significant increase; also recorded: induced an increase

Substance: Ghrelin: Positive control; 28 amino acid peptide hormone acylated on serine 3, endogenous GHS-R1a ligand (GSS(Octanoyl)FLSPEHQRVQQRKESKKPPAKLQPR; UniProt Q9UBU3 24-51, looked up) [reference compound]
- Total weight increase in the animals, Mean ± S.D. [1]: 92.1 ± 9.0 g
- Body weight gain compared with saline group (in words) [3]: associated with increases
- Cumulative food intake compared with control group (in words) [3]: associated with increases
- Epididymal fat depots (fat pad weight, in words) [3]: significant increase
- Subcutaneous fat depots (fat pad weight, in words) [3]: significant increase; also recorded: induced an increase
- Body weight gain compared with saline group (in words) [4]: gained significantly more weight than the saline group
- Cumulative food intake compared with control group (in words) [4]: higher cumulative food intake

Substance: GABAS(CO-C7 H15)FLSPEHQRVQQRKESKKPPAKLQPR ([GABA]S(Octanoyl)FLSPEHQRVQQRKESKKPPAKLQPR) [GTP-5, 27 amino acids long, octanoyl on the serine-3 sidechain (GABA = 4-aminobutyric acid)]
- Total weight increase in the animals, Mean ± S.D. (50 μg/kg body weight/injection): 75.4 ± 14.3 g
- Total weight increase in the animals, Mean ± S.D. [1]: 78.2 ± 16.3 g
- Body weight gain compared with saline group (in words) [2]: higher weight gains than saline; also recorded: associated with increases
- Cumulative food intake compared with control group (in words) [2]: associated with increases
- Body weight gain compared with saline group (in words) [3]: higher weight gains than saline; also recorded: associated with increases
- Cumulative food intake compared with control group (in words) [3]: tended to eat more than the control group; also recorded: associated with increases
- Epididymal fat depots (fat pad weight, in words) [3]: significant increase
- Subcutaneous fat depots (fat pad weight, in words) [3]: significant increase; also recorded: induced an increase
